From ChEMBL document CHEMBL4507266, “Data for DCP probe BAY-784” (2021)

Legend:
[1] = organism: Rattus norvegicus; experiment: Testosterone Eurofins-Panlabs radioligand binding assay; parameters: ligand concentration 1.5 nM; conditions: Compound concentration 10.0 uM
[2] = target: Cannabinoid receptor 1 (Homo sapiens, UniProt P21554); experiment: Inhibition of Cannabinoid CB1 at compound concentration of 10.0 uM in the Eurofins-Panlabs radioligand binding assay (Eurofins_assay_217030); parameters: ligand concentration 2 nM, non-specific ligand with concentration 10 uM R(+)-WIN-55,212-2, incubation time 90 min, incubation temperature 37 C
[3] = organism: Rattus norvegicus; experiment: Inhibition of Glutamate, NMDA, Phencyclidine at 10 µM in the Eurofins-Panlabs radioligand binding assay (Eurofins_assay_233000); assay type: protein-complex assay; conditions: Compound concentration 10.0 uM
[4] = organism: Rattus norvegicus; experiment: Inhibition of Imidazoline I2, Central at 10 µM in the Eurofins-Panlabs radioligand binding assay (Eurofins_assay_241000); parameters: ligand concentration 2 nM; conditions: Compound concentration 10.0 uM
[5] = target: Cysteinyl leukotriene receptor 1 (Homo sapiens) (UniProt Q9Y271); experiment: Inhibition of Leukotriene, Cysteinyl CysLT1 at 10 µM in the Eurofins-Panlabs radioligand binding assay (Eurofins_assay_250460); parameters: ligand concentration 0.3 nM, non-specific ligand with concentration 0.3 µM Leukotriene D4, incubation time 30 min, incubation temperature 25 °C; conditions: Compound concentration 10.0 uM
[6] = target: Platelet-activating factor receptor (Homo sapiens) (UniProt P25105); experiment: Inhibition of Platelet Activating Factor (PAF) at 10 µM in the Eurofins-Panlabs radioligand binding assay (Eurofins_assay_265010); conditions: Compound concentration 10.0 uM
Sequence of Platelet-activating factor receptor (Homo sapiens) (P25105 whole entry): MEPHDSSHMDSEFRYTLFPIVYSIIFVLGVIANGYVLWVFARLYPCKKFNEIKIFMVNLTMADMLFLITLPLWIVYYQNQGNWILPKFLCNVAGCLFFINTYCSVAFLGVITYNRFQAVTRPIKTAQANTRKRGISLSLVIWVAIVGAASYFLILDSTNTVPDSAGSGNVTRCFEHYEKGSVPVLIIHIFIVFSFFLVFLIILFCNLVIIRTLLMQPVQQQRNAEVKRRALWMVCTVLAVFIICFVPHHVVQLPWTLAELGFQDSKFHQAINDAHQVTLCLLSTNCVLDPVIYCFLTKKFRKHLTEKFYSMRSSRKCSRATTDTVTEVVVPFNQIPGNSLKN

[7] = test system: Bacteria; experiment: Inhibition of Beta-Lactamase at 10 µM in the Eurofins-Panlabs enzyme assay (Eurofins_assay_126000); assay type: protein-complex assay; parameters: substrate with concentration; conditions: Compound concentration 10.0 uM
[8] = target: Carbonic anhydrase 2 (Homo sapiens) (UniProt P00918); experiment: Inhibition of Carbonic Anhydrase II at compound concentration of 10.0 uM in the Eurofins-Panlabs enzyme assay (Eurofins_assay_112020); parameters: substrate with concentration; conditions: Compound concentration 10.0 uM
[9] = target: 3-hydroxy-3-methylglutaryl-coenzyme A reductase (Homo sapiens) (UniProt P04035); experiment: Inhibition of HMG-CoA Reductase at compound concentration of 10.0 uM in the Eurofins-Panlabs enzyme assay (Eurofins_assay_124010); parameters: substrate with concentration; conditions: Compound concentration 10.0 uM
Sequence of 3-hydroxy-3-methylglutaryl-coenzyme A reductase (Homo sapiens) (P04035 whole entry): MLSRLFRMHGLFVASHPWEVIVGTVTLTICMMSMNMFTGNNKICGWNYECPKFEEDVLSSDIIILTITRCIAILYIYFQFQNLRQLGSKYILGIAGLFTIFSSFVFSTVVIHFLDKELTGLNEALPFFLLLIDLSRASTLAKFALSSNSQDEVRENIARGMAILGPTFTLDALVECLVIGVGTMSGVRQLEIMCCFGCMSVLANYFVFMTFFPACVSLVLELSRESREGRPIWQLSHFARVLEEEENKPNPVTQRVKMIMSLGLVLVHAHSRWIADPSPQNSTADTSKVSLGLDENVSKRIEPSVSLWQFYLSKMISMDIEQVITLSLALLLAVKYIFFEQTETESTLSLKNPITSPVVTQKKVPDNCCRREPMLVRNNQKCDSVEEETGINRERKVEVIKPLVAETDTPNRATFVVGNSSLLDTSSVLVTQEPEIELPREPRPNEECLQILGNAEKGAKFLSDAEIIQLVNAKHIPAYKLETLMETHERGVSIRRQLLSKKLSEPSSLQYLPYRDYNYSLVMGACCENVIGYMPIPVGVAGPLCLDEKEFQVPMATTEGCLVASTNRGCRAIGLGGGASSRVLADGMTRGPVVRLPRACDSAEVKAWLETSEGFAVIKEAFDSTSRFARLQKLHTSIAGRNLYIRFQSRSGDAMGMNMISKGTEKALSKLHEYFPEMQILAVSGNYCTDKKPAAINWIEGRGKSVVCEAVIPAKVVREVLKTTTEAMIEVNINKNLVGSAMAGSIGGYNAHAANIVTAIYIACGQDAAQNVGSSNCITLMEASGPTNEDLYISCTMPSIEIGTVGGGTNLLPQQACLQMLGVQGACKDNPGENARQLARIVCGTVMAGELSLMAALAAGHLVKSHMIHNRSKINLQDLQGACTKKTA

[10] = target: Neutrophil elastase (Homo sapiens) (UniProt P08246); experiment: Peptidase, ELA2 (Neutrophil Elastase 2) Eurofins-Panlabs enzyme assay; conditions: Compound concentration 30.0 uM
Sequence of Neutrophil elastase (Homo sapiens) (P08246 whole entry): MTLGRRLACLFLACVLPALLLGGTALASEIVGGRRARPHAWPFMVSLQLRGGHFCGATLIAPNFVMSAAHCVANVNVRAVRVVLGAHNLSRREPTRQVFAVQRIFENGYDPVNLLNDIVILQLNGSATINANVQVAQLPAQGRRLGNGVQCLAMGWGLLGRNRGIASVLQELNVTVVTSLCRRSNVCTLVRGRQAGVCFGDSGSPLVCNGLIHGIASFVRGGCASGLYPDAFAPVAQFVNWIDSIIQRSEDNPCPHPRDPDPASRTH

[11] = target: Mitogen-activated protein kinase 14 (Homo sapiens) (UniProt Q16539); experiment: Inhibition of Protein Serine/Threonine Kinase, MAPK14 (p38α) at 10 µM in the Eurofins-Panlabs enzyme assay (Eurofins_assay_176610); parameters: substrate with concentration; conditions: Compound concentration 10.0 uM
[12] = target: Tyrosine-protein kinase Lck (Homo sapiens) (UniProt P06239); experiment: Inhibition of Protein Tyrosine Kinase, LCK at 10 µM in the Eurofins-Panlabs enzyme assay (Eurofins_assay_176020); conditions: Compound concentration 10.0 uM
Sequence of Tyrosine-protein kinase Lck (Homo sapiens) (P06239 2-509 limits assumed): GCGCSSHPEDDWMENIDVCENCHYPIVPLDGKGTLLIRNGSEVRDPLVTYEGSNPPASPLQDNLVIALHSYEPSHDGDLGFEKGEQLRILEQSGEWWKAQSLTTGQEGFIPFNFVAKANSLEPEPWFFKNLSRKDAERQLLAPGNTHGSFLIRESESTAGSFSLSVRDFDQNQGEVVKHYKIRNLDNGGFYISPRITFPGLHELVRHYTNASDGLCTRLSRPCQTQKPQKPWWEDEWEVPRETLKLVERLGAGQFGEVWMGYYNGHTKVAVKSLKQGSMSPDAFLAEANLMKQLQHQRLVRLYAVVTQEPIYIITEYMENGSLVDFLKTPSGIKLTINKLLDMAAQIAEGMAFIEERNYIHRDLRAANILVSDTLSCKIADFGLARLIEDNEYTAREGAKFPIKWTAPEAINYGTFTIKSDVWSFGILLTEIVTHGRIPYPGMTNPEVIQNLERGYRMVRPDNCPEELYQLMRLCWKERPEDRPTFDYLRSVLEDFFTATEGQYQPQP

[13] = target: Receptor-type tyrosine-protein phosphatase C (Homo sapiens) (UniProt P08575); experiment: Inhibition of Protein Tyrosine Phosphatase, PTPRC (CD45) at 10 µM in the Eurofins-Panlabs enzyme assay (Eurofins_assay_190010); conditions: Compound concentration 10.0 uM
Sequence of Receptor-type tyrosine-protein phosphatase C (Homo sapiens) (P08575 whole entry): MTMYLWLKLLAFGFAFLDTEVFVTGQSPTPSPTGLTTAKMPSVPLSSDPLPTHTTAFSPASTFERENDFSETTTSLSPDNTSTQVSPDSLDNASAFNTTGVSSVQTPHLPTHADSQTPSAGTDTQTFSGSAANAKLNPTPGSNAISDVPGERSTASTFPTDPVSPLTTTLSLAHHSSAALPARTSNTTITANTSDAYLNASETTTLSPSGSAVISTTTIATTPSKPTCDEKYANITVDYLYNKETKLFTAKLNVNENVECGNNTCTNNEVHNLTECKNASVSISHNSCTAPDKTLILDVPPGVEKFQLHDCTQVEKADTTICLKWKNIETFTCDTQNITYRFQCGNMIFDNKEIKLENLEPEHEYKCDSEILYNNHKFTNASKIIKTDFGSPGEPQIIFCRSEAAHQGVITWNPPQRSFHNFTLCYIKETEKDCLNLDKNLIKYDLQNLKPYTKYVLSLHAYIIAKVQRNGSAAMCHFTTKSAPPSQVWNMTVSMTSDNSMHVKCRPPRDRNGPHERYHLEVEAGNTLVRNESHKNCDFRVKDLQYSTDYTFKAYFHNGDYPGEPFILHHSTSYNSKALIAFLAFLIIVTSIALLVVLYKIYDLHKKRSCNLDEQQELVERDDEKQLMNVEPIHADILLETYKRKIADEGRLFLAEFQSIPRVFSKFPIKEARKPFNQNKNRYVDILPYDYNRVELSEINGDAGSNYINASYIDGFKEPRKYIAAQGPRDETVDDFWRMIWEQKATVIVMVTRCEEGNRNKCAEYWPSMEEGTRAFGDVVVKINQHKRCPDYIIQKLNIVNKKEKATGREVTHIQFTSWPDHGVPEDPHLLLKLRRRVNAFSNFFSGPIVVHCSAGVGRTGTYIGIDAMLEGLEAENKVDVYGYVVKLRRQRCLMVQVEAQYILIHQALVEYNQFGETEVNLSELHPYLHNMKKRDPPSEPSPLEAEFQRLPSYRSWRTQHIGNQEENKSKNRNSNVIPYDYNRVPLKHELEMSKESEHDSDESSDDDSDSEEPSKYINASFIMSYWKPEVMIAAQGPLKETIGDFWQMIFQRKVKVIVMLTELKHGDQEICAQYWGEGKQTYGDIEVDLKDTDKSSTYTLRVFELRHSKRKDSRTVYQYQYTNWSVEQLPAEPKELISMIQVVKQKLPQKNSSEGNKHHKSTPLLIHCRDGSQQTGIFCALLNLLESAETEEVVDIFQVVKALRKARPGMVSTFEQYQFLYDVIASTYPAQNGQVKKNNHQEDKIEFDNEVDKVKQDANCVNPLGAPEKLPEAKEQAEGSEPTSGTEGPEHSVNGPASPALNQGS

[14] = Inhibition of Atrial Natriuretic Factor (ANF) at 10 µM in the Eurofins-Panlabs radioligand binding assay (Eurofins_assay_211000); conditions: Cavia porcellus; Compound concentration 10 uM; Assay protocol publication PMID: 2408776; Detection method Radioligand Binding; Incubation temperature 4 °C; Incubation time 60 min; Ligand Bmax 0.013 pM/ mg protein; Ligand Kd 0.14 nM; Ligand [125I] ANF (rat); Ligand concentration 0.016 nM; Ligand specific binding 78 %; Non-specific ligand with concentration 0.1 µM ANF (rat); Reference compound ANF (rat); Source of …
[15] = target: C-C chemokine receptor type 2 (Homo sapiens) (UniProt P41597); experiment: Inhibition of Chemokine CCR2B at 10 µM in the Eurofins-Panlabs radioligand binding assay (Eurofins_assay_217550); conditions: Compound concentration 10.0 uM
[16] = target: Sigma intracellular receptor 2 (Homo sapiens, UniProt Q5BJF2); experiment: Inhibition of Sigma 2 at 10 µM in the Eurofins-Panlabs radioligand binding assay (Eurofins_assay_278200); parameters: ligand concentration 3 nM; conditions: Rattus norvegicus; Compound concentration 10.0 uM
Sequence of Sigma intracellular receptor 2 (Q5BJF2 whole entry): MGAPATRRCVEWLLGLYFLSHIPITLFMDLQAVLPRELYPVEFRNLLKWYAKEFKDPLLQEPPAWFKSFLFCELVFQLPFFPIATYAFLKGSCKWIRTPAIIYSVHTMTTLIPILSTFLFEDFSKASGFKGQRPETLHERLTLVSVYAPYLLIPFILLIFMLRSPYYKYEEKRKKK

[17] = target: Adenosine Transporter (Cavia porcellus) (UniProt H0V4R7+H0UUG1+H0V3Z5); experiment: Inhibition of Transporter, Adenosine at compound concentration of 10.0 uM in the Eurofins-Panlabs radioligand binding assay (Eurofins_assay_202000); assay type: protein assay; parameters: ligand concentration 0.5 nM, non-specific ligand with concentration 5 uM Nitrobenzylthioinosine, incubation time 30 min, incubation temperature 25 C; conditions: Compound concentration 10.0 uM
[18] = target: Vasoactive intestinal polypeptide receptor 1 (Homo sapiens) (UniProt P32241); experiment: Inhibition of Vasoactive Intestinal Peptide VIP1 at 10 µM in the Eurofins-Panlabs radioligand binding assay (Eurofins_assay_287010); conditions: Compound concentration 10.0 uM
[19] = target: GABA-A receptor; anion channel (Rattus norvegicus) (UniProt O09028+P15431+P18506+P18508+P19969+P20236+P23574+P23576+P28471+P28473+P30191+P62813+P63079+P63138+Q91ZM7+Q9ES14); conditions: Compound concentration 10.0 uM
[20] = organism: Rattus norvegicus; conditions: Compound concentration 10.0 uM
[21] = target: Endothelin-1 receptor (Homo sapiens) (UniProt P25101); conditions: Compound concentration 10.0 uM
Sequence of Endothelin-1 receptor (Homo sapiens) (P25101 whole entry): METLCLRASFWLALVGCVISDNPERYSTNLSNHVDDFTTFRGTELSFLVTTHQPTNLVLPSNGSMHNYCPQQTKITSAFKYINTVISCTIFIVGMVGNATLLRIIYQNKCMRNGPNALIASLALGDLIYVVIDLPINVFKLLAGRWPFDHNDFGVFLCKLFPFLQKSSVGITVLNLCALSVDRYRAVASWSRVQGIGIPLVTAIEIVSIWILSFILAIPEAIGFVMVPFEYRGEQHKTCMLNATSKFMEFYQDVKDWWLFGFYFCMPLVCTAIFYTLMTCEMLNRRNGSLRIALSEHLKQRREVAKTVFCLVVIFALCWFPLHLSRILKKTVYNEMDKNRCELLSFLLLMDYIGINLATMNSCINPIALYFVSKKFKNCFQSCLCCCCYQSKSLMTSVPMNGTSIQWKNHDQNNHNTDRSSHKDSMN

[22] = target: Histamine H1 receptor (Homo sapiens) (UniProt P35367); conditions: Compound concentration 10.0 uM
[23] = target: T1, Muscarinic acetylcholine receptor M2 (Homo sapiens) (UniProt P08172); conditions: Compound concentration 10.0 uM
T1 sequence (whole entry): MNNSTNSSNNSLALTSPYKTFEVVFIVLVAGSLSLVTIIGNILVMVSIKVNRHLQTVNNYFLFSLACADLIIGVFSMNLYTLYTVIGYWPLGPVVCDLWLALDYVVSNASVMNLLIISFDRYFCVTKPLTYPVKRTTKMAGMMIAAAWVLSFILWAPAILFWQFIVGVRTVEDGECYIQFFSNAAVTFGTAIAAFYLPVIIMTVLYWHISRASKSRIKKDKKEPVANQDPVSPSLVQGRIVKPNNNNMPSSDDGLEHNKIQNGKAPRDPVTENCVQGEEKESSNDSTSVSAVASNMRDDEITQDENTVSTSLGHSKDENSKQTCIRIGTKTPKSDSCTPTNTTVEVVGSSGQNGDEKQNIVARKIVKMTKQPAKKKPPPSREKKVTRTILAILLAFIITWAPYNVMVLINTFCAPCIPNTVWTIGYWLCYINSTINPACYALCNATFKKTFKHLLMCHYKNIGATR

[24] = target: 5-hydroxytryptamine receptor 1A (Homo sapiens) (UniProt P08908); conditions: Compound concentration 10.0 uM
Sequence of 5-hydroxytryptamine receptor 1A (Homo sapiens) (P08908 whole entry): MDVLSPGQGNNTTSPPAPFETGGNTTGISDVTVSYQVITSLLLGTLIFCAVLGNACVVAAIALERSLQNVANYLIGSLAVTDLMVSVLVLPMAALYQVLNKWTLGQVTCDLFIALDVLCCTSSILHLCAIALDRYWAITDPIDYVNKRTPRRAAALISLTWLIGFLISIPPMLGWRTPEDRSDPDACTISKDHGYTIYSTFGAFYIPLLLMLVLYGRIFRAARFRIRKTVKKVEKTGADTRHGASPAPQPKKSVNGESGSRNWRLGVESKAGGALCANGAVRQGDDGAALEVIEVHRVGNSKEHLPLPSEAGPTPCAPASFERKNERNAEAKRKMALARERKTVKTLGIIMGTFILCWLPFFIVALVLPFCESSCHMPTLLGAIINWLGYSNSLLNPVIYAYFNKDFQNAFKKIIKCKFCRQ

[25] = target: 5-hydroxytryptamine receptor 2B (Homo sapiens) (UniProt P41595); conditions: Compound concentration 10.0 uM
[26] = target: Sodium-dependent noradrenaline transporter (Homo sapiens) (UniProt P23975); conditions: Compound concentration 10.0 uM
[27] = target: Glucocorticoid receptor (Homo sapiens) (UniProt P04150); conditions: Compound concentration 10.0 uM
[28] = target: D(2) dopamine receptor (Homo sapiens) (UniProt P14416); conditions: Compound concentration 10.0 uM
Sequence of D(2) dopamine receptor (Homo sapiens) (P14416 whole entry): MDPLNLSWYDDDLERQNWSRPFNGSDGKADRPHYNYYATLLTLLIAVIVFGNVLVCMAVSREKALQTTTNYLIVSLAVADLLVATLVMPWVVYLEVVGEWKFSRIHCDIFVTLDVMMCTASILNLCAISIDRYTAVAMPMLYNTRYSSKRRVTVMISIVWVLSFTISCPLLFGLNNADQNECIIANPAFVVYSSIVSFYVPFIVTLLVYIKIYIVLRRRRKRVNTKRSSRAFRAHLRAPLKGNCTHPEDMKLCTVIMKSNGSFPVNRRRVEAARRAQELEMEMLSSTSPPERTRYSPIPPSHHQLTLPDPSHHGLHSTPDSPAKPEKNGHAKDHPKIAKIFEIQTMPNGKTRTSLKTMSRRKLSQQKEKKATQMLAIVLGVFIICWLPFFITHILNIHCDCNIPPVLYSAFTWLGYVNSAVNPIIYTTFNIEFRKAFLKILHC

[29] = target: Sodium-dependent dopamine transporter (Homo sapiens) (UniProt Q01959); conditions: Compound concentration 10.0 uM

Compound: O=C(NCc1ncc(C(F)(F)F)cc1Cl)c1ccc2c(c1)C1(CCS(=O)(=O)CC1)[C@H](C1CC1)N2S(=O)(=O)c1ccc(F)cc1 [BAY-784]
- inhibition [1]: 16%
- Ki [2]: 2570 nM
- inhibition [3]: -4%
- inhibition [4]: 10%
- inhibition [5]: 4%
- inhibition [6]: 6%
- inhibition [7]: 4%
- inhibition [8]: -5%
- inhibition [9]: 12%
- inhibition [10]: 4%
- inhibition [11]: 50%
- inhibition [12]: 0%
- inhibition [13]: -5%
- inhibition at 10 µM [14]: 2% (not active)
- inhibition [15]: -1%
- inhibition [16]: 20%
- inhibition [17]: 25%
- inhibition [18]: 2%
- inhibition [19]: -9.68%
- inhibition [20]: 7.97%
- inhibition [21]: 16%
- inhibition [22]: 9%
- inhibition [23]: -3%
- inhibition [24]: 0%
- inhibition [25]: 4%
- inhibition [26]: 14%
- inhibition [27]: 13%

Compound: O=C(NCc1ncc(C(F)(F)F)cc1Cl)c1ccc2c(c1)C1(CCS(=O)(=O)CC1)[C@@H](C1CC1)N2S(=O)(=O)c1ccc(F)cc1 [BAY-786]
- inhibition [28]: -8.4%
- inhibition [29]: -4.64%
